The values below come from patent publication US9403702B1, “Commodity water purifier” (A BETTER LIFE WORLDWIDE, LLC, priority 2015, dated 2016).

Like-named read-outs stand apart in the source and are kept apart here.

The conditions of data set [1]: bound to proteins on skin, mucosa, mouth tissue and teeth; cited from earlier work.
Data set [2] concerns gram-positive and gram-negative bacteria. Conditions: typical; cited from earlier work.
For data set [3] the test system is unchanged. Conditions: in vitro; cited from earlier work.
For data set [4] the following is noted: water, cited from earlier work.
The nature of the next data set: Solubility in water. The data set is classed as physicochemical. Particulars: inventors' finding for CXC. The text has this:
Although the biological properties of CX are valuable its engineering properties are somewhat challenging. […] However CX is crystalline, and becomes impermeable when formed into a filter. The impermeability renders the filter properties moot. And even if the filter properties remained intact, the presence of CX in effluent would raise the standard for registration with the EPA and for management of the effluent.
In an effort to resolve that problem, U.S. Pat. No. 7,427,409 discloses use of a hydrate, i.e., CX having 1.3 water molecules per chlorhexidine molecules, and the composition is an amorphous material from which a permeable filter can be manufactured. […] The present invention contemplates use of CXH for any value of n for waters of hydration. However the inventors have discovered an unexpected disadvantage of CXH, namely that a small amount of CXH is eroded from the amorphous solid when fluid passes over or through it and thus exits with the effluent. Any water purifier that allows such emissions must be registered with the EPA as a pesticide, as opposed to a purifier, moreover the maker and/or marketer of the filter would be responsible for the ultimate fate and effects of the CXH after it leaves the filter. Moreover CXH decomposes when heated, and the water of hydration evaporates at 96° C. […]

In the case of `[H]/N=C(\N/C(=N/[H])NCCCCCCNC(=N)NC(=N)Nc1ccc(Cl)cc1)Nc1ccc(Cl)cc1` [CX, N,N″″1,6-Hexanediylbis[N′-(4-chlorophenyl)(imidodicarbonimidic diamide)]], in data set [1], the persistence of activity was not below 48 h. For the same compound, the “time of uptake of CX into the cells” value in data set [2] was not above 20 s. The “time to kill virtually all gram-positive and gram-negative bacteria” value in data set [3] was not above 30 s. Also, the solubility entry in data set [4] was “practically insoluble”.
In the case of chlorhexidine citrate [CXC], in the data set “Solubility in water”, the solubility result is reported as “low solubility”.
With `[H]/N=C(\N/C(=N/[H])NCCCCCCNC(=N)NC(=N)Nc1ccc(Cl)cc1)Nc1ccc(Cl)cc1` [CXH, chlorhexidine hydrate], the solubility entry in data set [4] (hydrate) is given as “essentially insoluble”.
